The text below walks through data of US12552824B2, “C-mannoside compounds useful for the treatment of urinary tract infections” (GLAXOSMITHKLINE INTELLECTUAL PROPERTY DEVELOPMENT LIMITED, priority 2018, dated 2026).

In one series the target is T1, FimH (Escherichia coli, UniProt Q1R2J4).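 Also: concentration in nM.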
T1 construct: endogenous in cells; host or cells: E. coli UTI89 whole bacteria, agglutinating guinea pig red blood cells
In kind it is cell-based. As to conditions: concentration reducing bacterial agglutination of guinea pig red blood cells by greater than 90%; UTI89 bacteria. In short, it runs like this: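 Hemagglutination inhibition using uropathogenic E. coli UTI89 and guinea pig red blood cells.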

Series [1] in a line: Rat pharmacokinetics: IV infusion 1 mg/kg, then PO 5 mg/kg; blood and urine by LC-MS/MS. It counts as in vivo, Male Wistar Han rats. As to conditions: for % F: oral bioavailability, ratio of dose-normalised AUC PO (5 mg/kg) and IV infusion (1 mg/kg); for Ue % po: percentage of oral dose (5 mg/kg) eliminated unchanged in urine. An excerpt: General Assays for Obtaining AUC Oral h*μm, % F, and Ue % PO Values
Male Wistar Han rats were purchased from Vital River Laboratory Animal Technology Co. Ltd (Beijing, China). The animals were approx. 6-8 weeks old with body weights of 200-300 g on the dosing date. The animals were housed in a 12-hour light/12-hour dark cycle environment and had free access to food and water. All animals were fed prior to dosing. Studies were approved by the Pharmaron Institutional Animal Care and Use Committee (IACUC).
Test article was administered as an intravenous infusion for 1 hour (1 mg/kg) at 5 mL/kg/h. After 48 h, animals received a single oral dose (5 mg/kg, free form) at a dose volume of 10 mL/kg, respectively. Blood samples were collected at various time points after IV infusion and PO administrations. Urine samples were collected at various time points after IV infusion and PO administrations.
Test article was dissolved in DMSO with vortexing and sonification to obtain a stock solution. An aliquot of the stock solution was mixed with 10% HP-β-CD in saline with vortexing to obtain a solution with concentration at 0.2 mg/mL of test article.
Test article was added into 1% Methyl Cellulose with vortexing and sonication to obtain a homogeneous suspension with concentration at 0.5 mg/mL of test article.
For IV infusion (1 mg/kg) administration, blood samples were collected from each animal at 0, 0.25, 0.5, 0.75, 1, 1.08, 1.25, 1.5, 1.75, 2, 3, 5, 8, 12, 24 hour post-dose.
For PO (5 mg/kg) administration, blood samples were collected from each animal at 0, 0.25, 0.5, 1, 1.5, 2, 3, 4, 6, 8, 12, 24 hour post-dose.
Blood samples (50 μL) were collected from each animal via jugular vein. These blood samples were placed into tubes containing K2EDTA. Whole blood was mixed with same volume of water and inverted several times. The blood samples were stored at −75±15° C. until analysis.
For IV infusion (1 mg/kg) administration, urine samples were collected from each animal at 0-4, 4-8, 8-12, 12-24 hour post-dose.
For PO (5 mg/kg) administration, urine samples were collected from each animal at 0-4, 4-8, 8-12, 12-24 hour post-dose.
Urine samples were collected continuously into containers maintained over dry ice at the intervals outlined below and stored at −80° C. prior to analysis.
55 μL of standards, 55 μL of QC samples or 55 μL of unknown samples (50 μL of blood or urine with 5 μL 50% acetonitrile) were mixed to 200 μL of acetonitrile containing IS (dexamethasone) to precipitate proteins. Then the samples were vortexed for 30 sec. After centrifugation at 4° C., 4700 rpm for 30 min, and 5 μL of the supernatant was injected into the LC-MS/MS system for quantitative analysis.
Test article blood and urine concentrations for each animal following IV infusion at 1 mg/kg and PO at 5 mg/kg were used to calculate pharmacokinetic parameters by employing a non-compartmental analysis (Phoenix™ WinNonlin® 7.0). The linear trapezoidal algorithm was used for AUC calculation.

Consider `Cc1cc(-c2cc(F)c(OC(C)C)c(F)c2)ccc1[C@@H](O)[C@H]1O[C@H](CO)[C@@H](O)[C@H](O)[C@@H]1O` [Example 93], for which, at FimH, the “HAI titer EC > 90” value is reported as ““++++” (<50 “++++”)”. Also, in series [1], the “% F” value is ““++” (10 <= x <= 30%)” and the Ue % po entry is ““+” (<0.5%)”.
Taken in the same sequence, the figures for `CCc1c(F)cc(-c2ccc([C@@H](O)[C@H]3O[C@H](CO)[C@@H](O)[C@H](O)[C@@H]3O)c(C)c2)cc1F` [Example 94] were ““++++” (<50 “++++”)”, ““++” (10 <= x <= 30%)” and ““+” (<0.5%)”.
For `Cc1cc(-c2cc(F)c(OC(F)(F)F)c(F)c2)ccc1[C@@H](O)[C@H]1O[C@H](CO)[C@@H](O)[C@H](O)[C@@H]1O` [Example 101], the “HAI titer EC > 90” value on FimH is on record as ““++++” (<50 “++++”)”. Besides, in series [1], the “% F” value was ““++” (10 <= x <= 30%)” and the Ue % po result is ““+” (<0.5%)”.
